From US6815546B2, “Analogues of camptothecin, their use as medicaments and the pharmaceutical compositions containing them” (Societe de Recherches et d'Applications Scientifiques …, priority 1995, dated 2004)

Key:
Format in all cases: cell-based
[1] = tested on: A549 (human lung carcinoma); experiment: Test on cell proliferation (MTT test), A549; conditions: 72 hours
Experimental: (§1) a. Eight tumoral cell lines are used in this study: L1210 (mouse lymphocytic leukemia), HCT15 and LOVO (cell lines of human colon adenocarcinoma), A549 (human lung carcinoma), A172, U373 et U87 (human glioblastoma). All these lines are obtained from the American Type Culture Collection (ATCC), Rockville, Md. The L1210 cell cultures in suspension are cultured in Dulbecco's modified Eagle's medium (DMEM) (BioWhitaker, Verviers, Belgium) together with 10% of foetal calf serum inactivated by heating, 2 mM of glutamine, 50 μg/ml of penicillin and 50 μg/ml of streptomycin. The HT29 cells are cultured in mono-layer cultures in a McCoy 5a medium (Gibco, Paisley, United Kingdom) together with 10% of foetal calf serum inactivated by heat plus 2 mM of glutamine and 50 μg/ml of gentamycin. The other cells are cultured in an Earle's modified essential medium (EMEM; Gibco, Paisley, United Kingdom) together with 5% foetal calf serum inactivated by heat, 2 mM of glutamine, 50 U/ml of penicillin and 50 μg/ml of streptomycin. All the cell lines are cultured at 37° C. in a humidified atmosphere containing 95% air and 5% CO2.
(§2) Inhibition of the tumor cell line proliferation is determined using an MTT test. 1500 L1210 cells in a culture medium (according to the needs of the cell medium) are seeded in a well of a micro-well plate (tissue culture level: 96 wells, flat bottom) 24 hours before treatment with the compounds to be tested. For these dose-response studies, the cells are incubated with each of the compounds to be tested or their corresponding solvent (controls) for 48 hours over a final concentration range of 1.10^−10 to 1.10^−4 M. All the compounds are dissolved just before use in dimethylsulphoxide (DMSO) at a concentration of 50 mM. Other dilutions of the medicaments are carried out in the culture medium. The final concentration of DMSO never exceeds 0.2% (v/v). As controls, the solutions of medicaments are replaced with the solvent which is diluted successively in the same way as the compounds to be tested.
(§3) After the incubation period, the labeling reagent MTT (3-[4,5-dimethylthiazol-2-yl]-2,5-diphenyltetrazolium bromide; Thiazol blue, Sigma M 565, Sigma, St Louis, Mo.) is added at a final concentration of 0.3 mg/ml to each well. The cells are incubated for 4 hours at 37° C. in a humidified atmosphere. This stage allows the mitochondrial dehydrogenase of the living cells to convert the yellow tetrazolium salt MTT into crimson formazan crystals. The supernatant part is eliminated and the formazan crystals formed are solubilized with DMSO. The resultant coloured solution is quantified by absorbance at 570 nm by using a multi-cuvette scanning spectrophotometer. The data concerning the proliferation is expressed as a percentage of living cells in the treated wells, divided by the living cells in the controls. Each point represents the average of three independent experiments, each experiment represents six determinations.
(§4) For the other cell lines (HCT15, LOVO, A549, A172, U373, U87), 1000 to 2000 cells are seeded in the well of a micro-well plate 24 hours before medicinal treatment. […]
(§5) The results are expressed as percentages of the calculated proliferation by the optical density (OD) of the cells treated with a medicament divided by the OD of the control cells (cells treated with DMSO). As represented in Table II, the compounds to be tested have inhibited the proliferation of cells in a dose-dependent manner.

[2] = tested on: U87 (human glioblastoma); experiment: Test on cell proliferation (MTT test), U87; conditions: 72 hours
Experimental: as §1, §2, §3, §4, §5

[3] = tested on: L1210 (mouse lymphocytic leukemia); experiment: Test on cell proliferation (MTT test), L1210; conditions: 48 hours
Experimental: as §1, §2, §3, §5

[4] = tested on: A172 (human glioblastoma); experiment: Test on cell proliferation (MTT test), A172; conditions: 72 hours
Experimental: as §1, §2, §3, §4, §5

[5] = tested on: HCT15 (cell lines of human colon adenocarcinoma); experiment: Test on cell proliferation (MTT test), HCT15; conditions: 72 hours
Experimental: as §1, §2, §3, §4, §5

[6] = tested on: LOVO (cell lines of human colon adenocarcinoma); experiment: Test on cell proliferation (MTT test), LOVO; conditions: 72 hours
Experimental: as §1, §2, §3, §4, §5

[7] = tested on: U373 (human glioblastoma); experiment: Test on cell proliferation (MTT test), U373; conditions: 72 hours
Experimental: as §1, §2, §3, §4, §5

CCC1(O)CC(=O)OCc2c1cc1n(c2=O)Cc2cc3cc4c(cc3nc2-1)OCCO4 (stereo not shown) [Example 11, 8-ethyl-8-hydroxy-2,3,8,9,12,15-hexahydro-10H,13H-[1,4]dioxino [2,3-g]oxepino[3′,4′:6,7]indolizino[1,2-b]quinoline-10,13-dione]
PERCENTAGE OF CELL PROLIFERATION ([1]; 0.1 nM): 82.00% | PERCENTAGE OF CELL PROLIFERATION ([1]; 1 nM): 44.00% | PERCENTAGE OF CELL PROLIFERATION ([1]; 10 nM): 29.00% | PERCENTAGE OF CELL PROLIFERATION ([1]; 100 nM): 26.00% | PERCENTAGE OF CELL PROLIFERATION ([1]; 1 000 nM): 4.00% | PERCENTAGE OF CELL PROLIFERATION ([1]; 10 000 nM): 3.00% | PERCENTAGE OF CELL PROLIFERATION ([1]; 100 000 nM): 2.00% | PERCENTAGE OF CELL PROLIFERATION ([2]; 0.1 nM): 40.00% | PERCENTAGE OF CELL PROLIFERATION ([2]; 1 nM): 21.00% | PERCENTAGE OF CELL PROLIFERATION ([2]; 10 nM): 12.00% | PERCENTAGE OF CELL PROLIFERATION ([2]; 100 nM): 6.00% | PERCENTAGE OF CELL PROLIFERATION ([2]; 1 000 nM): 1.00% | PERCENTAGE OF CELL PROLIFERATION ([2]; 10 000 nM): 1.00% | PERCENTAGE OF CELL PROLIFERATION ([2]; 100 000 nM): 1.00% | PERCENTAGE OF CELL PROLIFERATION ([3]; 0.1 nM): 91.99% | PERCENTAGE OF CELL PROLIFERATION ([3]; 1 nM): 81.37% | PERCENTAGE OF CELL PROLIFERATION ([3]; 10 nM): 23.16% | PERCENTAGE OF CELL PROLIFERATION ([3]; 100 nM): 16.83% | PERCENTAGE OF CELL PROLIFERATION ([3]; 1 000 nM): 5.59% | PERCENTAGE OF CELL PROLIFERATION ([3]; 10 000 nM): 1.45% | PERCENTAGE OF CELL PROLIFERATION ([3]; 100 000 nM): 1.04% | PERCENTAGE OF CELL PROLIFERATION ([4]; 0.1 nM): 95.00% | PERCENTAGE OF CELL PROLIFERATION ([4]; 1 nM): 53.00% | PERCENTAGE OF CELL PROLIFERATION ([4]; 10 nM): 47.00% | PERCENTAGE OF CELL PROLIFERATION ([4]; 100 nM): 39.00% | PERCENTAGE OF CELL PROLIFERATION ([4]; 1 000 nM): 12.00% | PERCENTAGE OF CELL PROLIFERATION ([4]; 10 000 nM): 3.00% | PERCENTAGE OF CELL PROLIFERATION ([4]; 100 000 nM): 2.00% | PERCENTAGE OF CELL PROLIFERATION ([5]; 0.1 nM): 71.00% | PERCENTAGE OF CELL PROLIFERATION ([5]; 1 nM): 63.00% | PERCENTAGE OF CELL PROLIFERATION ([5]; 10 nM): 45.00% | PERCENTAGE OF CELL PROLIFERATION ([5]; 100 nM): 23.00% | PERCENTAGE OF CELL PROLIFERATION ([5]; 1 000 nM): 12.00% | PERCENTAGE OF CELL PROLIFERATION ([5]; 10 000 nM): 9.00% | PERCENTAGE OF CELL PROLIFERATION ([5]; 100 000 nM): 9.00% | PERCENTAGE OF CELL PROLIFERATION ([6]; 0.1 nM): 66.00% | PERCENTAGE OF CELL PROLIFERATION ([6]; 1 nM): 42.00% | PERCENTAGE OF CELL PROLIFERATION ([6]; 10 nM): 29.00% | PERCENTAGE OF CELL PROLIFERATION ([6]; 100 nM): 21.00% | PERCENTAGE OF CELL PROLIFERATION ([6]; 1 000 nM): 8.00% | PERCENTAGE OF CELL PROLIFERATION ([6]; 10 000 nM): 3.00% | PERCENTAGE OF CELL PROLIFERATION ([6]; 100 000 nM): 3.00% | PERCENTAGE OF CELL PROLIFERATION ([7]; 0.1 nM): 50.00% | PERCENTAGE OF CELL PROLIFERATION ([7]; 1 nM): 30.00% | PERCENTAGE OF CELL PROLIFERATION ([7]; 10 nM): 25.00% | PERCENTAGE OF CELL PROLIFERATION ([7]; 100 nM): 8.00% | PERCENTAGE OF CELL PROLIFERATION ([7]; 1 000 nM): 2.00% | PERCENTAGE OF CELL PROLIFERATION ([7]; 10 000 nM): 1.00% | PERCENTAGE OF CELL PROLIFERATION ([7]; 100 000 nM): 2.00%
